# “And” between values parts separate entries of the source, which are not always exact repeats. Equal entries are not always repeated.
# Experiments:
# HEK-293T-ACE2^h cells = test: Cytotoxicity by MTT assay; type: cell-based, human; settings: for CC0 (maximum nontoxic concentration): 4 h incubation; for TC50 (concentration causing 50% host cells' death): 48 h treatment
# Experimental: The cytotoxic effect of honokiol derivatives on HEK-293T-ACE2^h cells was evaluated by MTT assay. HEK-293T-ACE2^h cells were seed into 96-well plate at a density of 1×10^4 cells per well and then treated with various concentrations of compounds for either 4 or 48 h. Then 10 μL of 3-(4, 5-dimethylthiazol-2-yl)-2, 5-diphenyltetrazolium bromide (MTT) (5 mg/mL) solution was added to each well for another 4 h incubation. The supernatants were then removed, and the formed formazan crystals were dissolved in 100 μL DMSO and the plate was agitated for 10 min. Relative cell viability was assessed by measuring the absorbance at 570 nm by using a microplate reader (Infinite M200 PRO Microplate Reader, Tecan, Swiss). The survival rate of HEK-293T-ACE2^h cells was calculated using the following formula: [(ODtreated-ODblank) / (ODcontrol-ODblank)] × 100%. The 50% toxic concentration (TC50) for 48 h was calculated by the GraphPad Prism 8.0 software (La Jolla, CA, USA). The maximum nontoxic concentration (CC0) for 4 h was determined as the maximum tested concentration in which the cell viability was 100%. Data were obtained from three independent experiments.
# [1] = system: SARS-CoV-2 spike pseudovirus; test: microbe, parasite or virus in culture; type: cell-based; settings: for IC50: Severe acute respiratory syndrome coronavirus 2, read-out: IC50 (inhibition of 50% viral entry into host cells)
# human ACE2 protein = target: T1, human ACE2 protein (Homo sapiens, UniProt Q9BYF1); test: Biolayer interferometry (BLI) binding assay with human ACE2; settings: His-tagged human ACE2 on Ni-NTA biosensor, 30 °C, 1:1 model
# T1 construct: purchased Sino Biological
# T1 sequence (Q9BYF1 18-805): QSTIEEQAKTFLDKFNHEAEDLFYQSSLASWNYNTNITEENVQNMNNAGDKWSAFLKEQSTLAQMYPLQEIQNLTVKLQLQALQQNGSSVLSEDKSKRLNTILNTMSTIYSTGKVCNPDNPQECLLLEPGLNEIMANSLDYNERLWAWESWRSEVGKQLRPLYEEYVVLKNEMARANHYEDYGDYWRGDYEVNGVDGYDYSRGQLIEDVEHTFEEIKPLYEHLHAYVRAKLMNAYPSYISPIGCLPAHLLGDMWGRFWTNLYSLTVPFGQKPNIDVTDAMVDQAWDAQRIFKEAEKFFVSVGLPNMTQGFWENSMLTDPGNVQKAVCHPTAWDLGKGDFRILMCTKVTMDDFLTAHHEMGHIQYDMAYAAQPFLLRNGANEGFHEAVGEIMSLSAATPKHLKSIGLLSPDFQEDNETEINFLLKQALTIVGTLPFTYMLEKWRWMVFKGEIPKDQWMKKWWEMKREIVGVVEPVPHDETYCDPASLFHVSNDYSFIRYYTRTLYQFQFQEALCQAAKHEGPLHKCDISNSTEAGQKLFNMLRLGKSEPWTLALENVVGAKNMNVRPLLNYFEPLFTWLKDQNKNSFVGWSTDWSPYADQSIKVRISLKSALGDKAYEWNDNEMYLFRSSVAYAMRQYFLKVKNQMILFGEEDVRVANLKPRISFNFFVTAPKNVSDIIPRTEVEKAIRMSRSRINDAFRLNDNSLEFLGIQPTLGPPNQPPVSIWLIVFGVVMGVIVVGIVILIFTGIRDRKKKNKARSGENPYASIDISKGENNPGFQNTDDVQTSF
# [2] = target: T2, SARS-CoV-2 spike RBD protein (Severe acute respiratory syndrome coronavirus 2, UniProt P0DTC2); type: binding
# T2 construct: purchased Sino Biological
# [3] = target: T3, SARS-CoV-2 spike RBD binding with ACE2 protein (Homo sapiens, UniProt Q9BYF1); test: Competitive ELISA of spike RBD binding with ACE2; type: biochemical; settings: read-out: Inhibitory rate of spike RBD-ACE2 binding
# T3 construct: purchased Sino Biological
# T3 sequence (Q9BYF1 18-740): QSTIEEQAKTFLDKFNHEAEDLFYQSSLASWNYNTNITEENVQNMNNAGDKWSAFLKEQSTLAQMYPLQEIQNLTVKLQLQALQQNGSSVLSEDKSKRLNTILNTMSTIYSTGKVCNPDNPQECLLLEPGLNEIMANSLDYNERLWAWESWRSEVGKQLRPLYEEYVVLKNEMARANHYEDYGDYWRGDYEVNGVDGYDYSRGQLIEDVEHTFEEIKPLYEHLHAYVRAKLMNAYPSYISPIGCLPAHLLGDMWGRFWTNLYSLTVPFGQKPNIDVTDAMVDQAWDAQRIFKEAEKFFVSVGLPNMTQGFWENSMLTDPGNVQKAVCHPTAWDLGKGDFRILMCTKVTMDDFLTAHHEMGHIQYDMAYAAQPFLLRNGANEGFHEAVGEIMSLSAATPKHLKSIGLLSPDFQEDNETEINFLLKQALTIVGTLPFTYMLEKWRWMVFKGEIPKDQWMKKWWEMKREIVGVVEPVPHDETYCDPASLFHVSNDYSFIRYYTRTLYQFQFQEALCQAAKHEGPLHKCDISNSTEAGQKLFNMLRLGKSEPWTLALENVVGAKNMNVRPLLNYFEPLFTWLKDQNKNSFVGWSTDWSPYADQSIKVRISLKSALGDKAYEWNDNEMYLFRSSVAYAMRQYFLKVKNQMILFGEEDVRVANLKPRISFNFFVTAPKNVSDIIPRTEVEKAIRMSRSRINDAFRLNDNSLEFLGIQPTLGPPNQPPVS
Compound,CC0 (maximum nontoxic concentration) (HEK-293T-ACE2^h cells) [µM],TC50 (concentration causing 50% host cells' death) (HEK-293T-ACE2^h cells),IC50 [1] [µM],other results
C=CCc1cc(-c2cc(CC=C)c3oc(=O)n(Cc4nnc(-c5ccccc5)o4)c3c2)c2oc(=O)n(Cc3nnc(-c4ccccc4)o3)c2c1 [Compound 6a],>100,>100 µM,29.2 ± 0.71,"SI (selectivity index, TC50/IC50) [1]: >3.42; Kd (human ACE2 protein): 8.41 ± 0.43 µM"
C=CCc1cc(-c2cc(CC=C)c3oc(=O)n(Cc4nnc(-c5ccccc5Cl)o4)c3c2)c2oc(=O)n(Cc3nnc(-c4ccccc4Cl)o3)c2c1 [Compound 6b],>100,>100 µM,> 100,
C=CCc1cc(-c2cc(CC=C)c3oc(=O)n(Cc4nnc(-c5cccc(Cl)c5)o4)c3c2)c2oc(=O)n(Cc3nnc(-c4cccc(Cl)c4)o3)c2c1 [Compound 6c],>100,>100 µM,> 100,
C=CCc1cc(-c2cc(CC=C)c3oc(=O)n(Cc4nnc(-c5ccc(Cl)cc5)o4)c3c2)c2oc(=O)n(Cc3nnc(-c4ccc(Cl)cc4)o3)c2c1 [Compound 6d],50,,> 50,
C=CCc1cc(-c2cc(CC=C)c3oc(=O)n(Cc4nnc(-c5ccccc5Br)o4)c3c2)c2oc(=O)n(Cc3nnc(-c4ccccc4Br)o3)c2c1 [Compound 6e],>100,>100 µM,> 100,
C=CCc1cc(-c2cc(CC=C)c3oc(=O)n(Cc4nnc(-c5cccc(Br)c5)o4)c3c2)c2oc(=O)n(Cc3nnc(-c4cccc(Br)c4)o3)c2c1 [Compound 6f],50,,> 50,
C=CCc1cc(-c2cc(CC=C)c3oc(=O)n(Cc4nnc(-c5ccc(Br)cc5)o4)c3c2)c2oc(=O)n(Cc3nnc(-c4ccc(Br)cc4)o3)c2c1 [Compound 6g],50,,> 50,
C=CCc1cc(-c2cc(CC=C)c3oc(=O)n(Cc4nnc(-c5ccccc5F)o4)c3c2)c2oc(=O)n(Cc3nnc(-c4ccccc4F)o3)c2c1 [Compound 6h],>100,,61.6 ± 1.21,"SI (selectivity index, TC50/IC50) [1]: >1.62"
C=CCc1cc(-c2cc(CC=C)c3oc(=O)n(Cc4nnc(-c5cccc(F)c5)o4)c3c2)c2oc(=O)n(Cc3nnc(-c4cccc(F)c4)o3)c2c1 [Compound 6i],>100,>100 µM,> 100,Antiviral entry activity (in words) [1]: complete loss of antiviral activities
C=CCc1cc(-c2cc(CC=C)c3oc(=O)n(Cc4nnc(-c5ccc(F)cc5)o4)c3c2)c2oc(=O)n(Cc3nnc(-c4ccc(F)cc4)o3)c2c1 [Compound 6j],50,,> 50,Antiviral entry activity (in words) [1]: complete loss of antiviral activities
C=CCc1cc(-c2cc(CC=C)c3oc(=O)n(Cc4nnc(-c5ccccc5C)o4)c3c2)c2oc(=O)n(Cc3nnc(-c4ccccc4C)o3)c2c1 [Compound 6k],>100,>100 µM,> 100,
C=CCc1cc(-c2cc(CC=C)c3oc(=O)n(Cc4nnc(-c5cccc(C)c5)o4)c3c2)c2oc(=O)n(Cc3nnc(-c4cccc(C)c4)o3)c2c1 [Compound 6l],>100,>100 µM,> 100,
C=CCc1cc(-c2cc(CC=C)c3oc(=O)n(Cc4nnc(-c5ccc(C)cc5)o4)c3c2)c2oc(=O)n(Cc3nnc(-c4ccc(C)cc4)o3)c2c1 [Compound 6m],50,,> 50,
C=CCc1cc(-c2cc(CC=C)c3oc(=O)n(Cc4nnc(-c5ccccc5OC)o4)c3c2)c2oc(=O)n(Cc3nnc(-c4ccccc4OC)o3)c2c1 [Compound 6n],50,,> 50,
C=CCc1cc(-c2cc(CC=C)c3oc(=O)n(Cc4nnc(-c5cccc(OC)c5)o4)c3c2)c2oc(=O)n(Cc3nnc(-c4cccc(OC)c4)o3)c2c1 [Compound 6o],>100,>100 µM,> 100,
C=CCc1cc(-c2cc(CC=C)c3oc(=O)n(Cc4nnc(-c5ccc(OC)cc5)o4)c3c2)c2oc(=O)n(Cc3nnc(-c4ccc(OC)cc4)o3)c2c1 [Compound 6p],>100,>100 µM,9.82 ± 1.16,"SI (selectivity index, TC50/IC50) [1]: >10.18; Kd (human ACE2 protein): 6.87 ± 0.29 µM; Interaction with spike RBD [2]: doesn’t show interaction; inhibition at 12.5 µM ([3]; 12.5 µM): 26.1%; inhibition at 25 µM [3]: 37.2%; inhibition at 50 µM [3]: 50.4%"
"C=CCc1ccc(O)c(-c2ccc(O)c(CC=C)c2)c1 [honokiol, reference compound]",50,48.23 µM and 48.23 ± 1.19 µM,> 50,Kd (human ACE2 protein): 17 ± 3.4 µM; inhibition at 25 µM [3]: 13.8%; inhibition at 50 µM [3]: 20.9%
